Data published in the supplement of paper PMC11061612.

Assays:
Assay in all cases: combination Emax (second highest fraction inhibited in the dose matrix, 72 h); higher = more inhibition; extreme values may be limits of the assay
[1] = tested on: EN (Endometrial Carcinoma)
In short: (§1)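 Cell lines in DMEM/F12 or RPMI with 10% FBS were plated in 1536-well plates, held 24 hours at 37°C, 5% CO2, then given two-drug dose matrices for 72 hours (DMSO typically 0.2%). Viability was read by CellTiter-Glo 2.0 luminescence and scaled as inhibition from 0 (vehicle wells) to 1 (blank wells). Combination Emax is the second-highest inhibition in the matrix; Bliss excess is observed combination effect minus expected EA + EB − EA·EB, EA and EB being single-agent effects.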

[2] = tested on: LoVo (Colorectal Carcinoma)
In short: as §1

[3] = tested on: PCI-30 (Head and Neck Carcinoma)
In short: as §1

[4] = tested on: RKO (Colorectal Carcinoma)
In short: as §1

SH-4 (Melanoma) = tested on: SH-4 (Melanoma)
In short: as §1

[5] = tested on: SUP-T1 (T-Lymphoblastic Leukemia)
In short: as §1

[6] = tested on: SW1116 (Colorectal Carcinoma)
In short: as §1

[7] = tested on: TE-4 (Esophageal Squamous Cell Carcinoma)
In short: as §1

Row | SMILES | combination Emax [1] | combination Emax [2] | combination Emax [3] | combination Emax [4] | combination Emax (SH-4 (Melanoma)) | combination Emax [5] | combination Emax [6] | combination Emax [7]
1 | COc1nnc2ccc(N3CCC(c4ccc(OCCN5CCN(C)C(=O)[C@H]5C)cc4)CC3)nn12 [AZD5153] + C=CCn1c(=O)c2cnc(Nc3ccc(N4CCN(C)CC4)cc3)nc2n1-c1cccc(C(C)(C)O)n1 [AZD1775] (first compound max 1 µM, partner max 1 µM) | 0.525 | 0.656 | 0.395 | 0.841 | 0.65 | 0.821 | 0.397 | 0.892
2 | NC1(C(=O)N[C@@H](CCO)c2ccc(Cl)cc2)CCN(c2ncnc3[nH]ccc23)CC1 [Capivasertib] + CCN(CCO)CCCOc1ccc2c(Nc3cc(CC(=O)Nc4cccc(F)c4)[nH]n3)ncnc2c1 [AZD2811] (first compound max 10 µM, 7x7, partner max 1 µM) | 0.661 | 0.632 | 0.28 | 0.615 | 0.323 | 0.83 | 0.197 | 0.748
3 | COc1cc2ncnc(Nc3ccc(F)c(Cl)c3)c2cc1OCCCN1CCOCC1 [Gefitinib] + CC(C)n1c(=O)n(C)c2cnc3cc(F)c(-c4ccc(OCCCN5CCCCC5)nc4)cc3c21 [AZD1390] (first compound max 10 µM, 7x7, partner max 0.3 µM) | 0.248 | 0.421 | 0.131 | 0.0688 | 0.149 | 0.382 | 0.241 | 0.981
4 | CC1(C)CCC(CN2CCN(c3ccc(C(=O)NS(=O)(=O)c4ccc(NCC5CCOCC5)c([N+](=O)[O-])c4)c(Oc4cnc5[nH]ccc5c4)c3)CC2)=C(c2ccc(Cl)cc2)C1 [Venetoclax] + Cn1cnc2c(F)c(Nc3ccc(Br)cc3Cl)c(C(=O)NOCCO)cc21 [Selumetinib] (first compound max 1 µM, 7x7, partner max 3 µM) | 0.373 | 0.374 | 0.206 | 0.441 | 0.872 | 0.426 | 0.453 | 0.114
5 | COc1nnc2ccc(N3CCC(c4ccc(OCCN5CCN(C)C(=O)[C@H]5C)cc4)CC3)nn12 [AZD5153] + Cn1cnc2c(F)c(Nc3ccc(Br)cc3Cl)c(C(=O)NOCCO)cc21 [Selumetinib] (first compound max 1 µM, 7x7, partner max 10 µM) | 0.289 | 0.862 | 0.368 | 0.88 | 0.953 | 0.718 | 0.699 | 0.871
6 | CC1(C)CCC(CN2CCN(c3ccc(C(=O)NS(=O)(=O)c4ccc(NCC5CCOCC5)c([N+](=O)[O-])c4)c(Oc4cnc5[nH]ccc5c4)c3)CC2)=C(c2ccc(Cl)cc2)C1 [Venetoclax] + C[C@@H]1COCCN1C2=NC(=NC(=C2)C3(CC3)[S@](=N)(=O)C)C4=C5C=CNC5=NC=C4 [AZD6738] (first compound max 1 µM, 7x7, partner max 10 µM) | 0.64 | 0.767 | 0.69 | 0.869 | 0.304 | 0.821 | 0.329 | 0.617
7 | CN(CCO)CC[C@H](CSc1ccccc1)Nc1ccc(S(=O)(=O)NC(=O)c2ccc(N3CCC([C@@H](O)c4ccccc4-c4ccc(Cl)cc4)CC3)cc2)cc1S(=O)(=O)C(F)(F)F [AZD4320] + Cn1cnc2c(F)c(Nc3ccc(Br)cc3Cl)c(C(=O)NOCCO)cc21 [Selumetinib] (first compound max 1 µM, 7x7, partner max 3 µM) | 0.29 | 0.516 | 0.224 | 0.754 | 0.955 | 0.872 | 0.599 | 0.308
8 | COc1nnc2ccc(N3CCC(c4ccc(OCCN5CCN(C)C(=O)[C@H]5C)cc4)CC3)nn12 [AZD5153] + CCN(CCO)CCCOc1ccc2c(Nc3cc(CC(=O)Nc4cccc(F)c4)[nH]n3)ncnc2c1 [AZD2811] (first compound max 1 µM, 7x7, partner max 1 µM) | 0.454 | 0.627 | 0.41 | 0.812 | 0.613 | 0.786 | 0.397 | 0.467
9 | C[C@@H](c1ccc2nccn2c1)n1nnc2ncc(-c3cnn(C)c3)nc21 [Savolitinib] + Cc1c2c(nn1C)CSCc1cc(n(C)n1)CSc1cc(c3ccccc3c1)OCCCc1c(C(=O)O)n(C)c3c-2c(Cl)ccc13 [AZD5991] (first compound max 1 µM, 7x7, partner max 1 µM) | 0.43 | 0.195 | 0.146 | 0.211 | 0.192 | 0.138 | 0.218 | 0.422
10 | CS(=O)(=O)CCNCc1ccc(-c2ccc3ncnc(Nc4ccc(OCc5cccc(F)c5)c(Cl)c4)c3c2)o1 [Lapatinib] + C[C@@H](Oc1cc(-c2cnn(C3CCNCC3)c2)cnc1N)c1c(Cl)ccc(F)c1Cl [Crizotinib] (first compound max 10 µM, 7x7, partner max 10 µM) | 0.559 | 0.708 | 0.366 | 0.942 | 0.883 | 0.875 | 0.688 | 1
11 | CC1(C)CCC(CN2CCN(c3ccc(C(=O)NS(=O)(=O)c4ccc(NCC5CCOCC5)c([N+](=O)[O-])c4)c(Oc4cnc5[nH]ccc5c4)c3)CC2)=C(c2ccc(Cl)cc2)C1 [Venetoclax] + COc1cc(Nc2ncc3c(n2)-c2ccc(Cl)cc2C(c2c(F)cccc2OC)=NC3)ccc1C(=O)O [Alisertib] (first compound max 1 µM, 7x7, partner max 10 µM) | 0.463 | 0.48 | 0.218 | 0.487 | 0.146 | 0.611 | 0.341 | 0.194
12 | C=CCn1c(=O)c2cnc(Nc3ccc(N4CCN(C)CC4)cc3)nc2n1-c1cccc(C(C)(C)O)n1 [AZD1775] + CCc1c2c(nc3ccc(O)cc13)-c1cc3c(c(=O)n1C2)COC(=O)[C@]3(O)CC [SN-38] (first compound max 1 µM, partner max 0.3 µM) | 0.699 | 0.818 | 0.836 | 0.966 | 0.607 | 0.84 | 0.43 | 
13 | CC1(C)CCC(CN2CCN(c3ccc(C(=O)NS(=O)(=O)c4ccc(NCC5CCOCC5)c([N+](=O)[O-])c4)c(Oc4cnc5[nH]ccc5c4)c3)CC2)=C(c2ccc(Cl)cc2)C1 [Venetoclax] + C=CCn1c(=O)c2cnc(Nc3ccc(N4CCN(C)CC4)cc3)nc2n1-c1cccc(C(C)(C)O)n1 [AZD1775] (first compound max 1 µM, partner max 1 µM) | 0.653 | 0.741 | 0.736 | 0.88 | 0.573 | 0.812 | 0.23 | 0.555
14 | NC1(C(=O)N[C@@H](CCO)c2ccc(Cl)cc2)CCN(c2ncnc3[nH]ccc23)CC1 [Capivasertib] + CC(C)n1c(=O)n(C)c2cnc3cc(F)c(-c4ccc(OCCCN5CCCCC5)nc4)cc3c21 [AZD1390] (first compound max 10 µM, 7x7, partner max 0.3 µM) | 0.574 | 0.586 | 0.298 | 0.524 | 0.359 | 0.718 | 0.215 | 0.616
15 | NC1(C(=O)N[C@@H](CCO)c2ccc(Cl)cc2)CCN(c2ncnc3[nH]ccc23)CC1 [Capivasertib] + CC(=O)c1c(C)c2cnc(Nc3ccc(N4CCNCC4)cn3)nc2n(C2CCCC2)c1=O [Palbociclib] (first compound max 10 µM, 7x7, partner max 10 µM) | 0.546 | 0.722 | 0.291 | 0.601 | 0.427 | 0.677 | 0.136 | 0.826
16 | CS(=O)(=O)CCNCc1ccc(-c2ccc3ncnc(Nc4ccc(OCc5cccc(F)c5)c(Cl)c4)c3c2)o1 [Lapatinib] + NC1(c2ccc(-c3nc4ccn5c(=O)[nH]nc5c4cc3-c3ccccc3)cc2)CCC1 [MK-2206] (first compound max 10 µM, 7x7, partner max 10 µM) | 0.512 | 0.713 | 0.475 | 0.931 | 0.901 | 0.912 | 0.627 | 
17 | CC(=O)Nc1cccc(-n2c(=O)n(C3CC3)c(=O)c3c(Nc4ccc(I)cc4F)n(C)c(=O)c(C)c32)c1 [Trametinib] + Cc1nc(-c2cn3c(n2)-c2ccc(-c4cnn(C(C)(C)C(N)=O)c4)cc2OCC3)n(C(C)C)n1 [Taselisib] (first compound max 1 µM, 7x7, partner max 10 µM) | 0.681 | 0.708 | 0.627 | 0.956 | 0.999 | 0.596 | 0.866 | 1
18 | Cc1nc(-c2cn3c(n2)-c2ccc(-c4cnn(C(C)(C)C(N)=O)c4)cc2OCC3)n(C(C)C)n1 [Taselisib] + O=C(Nc1ccc2[nH]nc(-c3ccncc3)c2c1)[C@@H]1CCN(CC(=O)N2CCN(c3ccc(-c4ncccn4)cc3)CC2)C1 [SCH772984] (first compound max 10 µM, 7x7, partner max 5 µM) | 0.619 | 0.738 | 0.4 | 0.961 | 0.921 | 0.609 | 0.521 | 
19 | CC(=O)c1c(C)c2cnc(Nc3ccc(N4CCNCC4)cn3)nc2n(C2CCCC2)c1=O [Palbociclib] + CC1(C)CCC(CN2CCN(c3ccc(C(=O)NS(=O)(=O)c4ccc(NCC5CCOCC5)c([N+](=O)[O-])c4)c(Oc4cnc5[nH]ccc5c4)c3)CC2)=C(c2ccc(Cl)cc2)C1 [Venetoclax] (first compound max 10 µM, 7x7, partner max 1 µM) | 0.146 | 0.484 | 0.223 | 0.315 | 0.271 | 0.618 | 0.04 | 0.217
20 | CC1(C)CCC(CN2CCN(c3ccc(C(=O)NS(=O)(=O)c4ccc(NCC5CCOCC5)c([N+](=O)[O-])c4)c(Oc4cnc5[nH]ccc5c4)c3)CC2)=C(c2ccc(Cl)cc2)C1 [Venetoclax] + C[C@@H](Nc1cc(F)cc(F)c1)c1cc(C(=O)N(C)C)cc2c(=O)cc(N3CCOCC3)oc12 [AZD8186] (first compound max 1 µM, 7x7, partner max 3 µM) | 0.422 | 0.494 | 0.19 | 0.113 | 0.192 | 0.461 | 0.0998 | 0.0248
21 | CS(=O)(=O)CCNCc1ccc(-c2ccc3ncnc(Nc4ccc(OCc5cccc(F)c5)c(Cl)c4)c3c2)o1 [Lapatinib] + Cn1cnc2c(F)c(Nc3ccc(Br)cc3Cl)c(C(=O)NOCCO)cc21 [Selumetinib] (first compound max 10 µM, 7x7, partner max 10 µM) | 0.345 | 0.742 | 0.335 | 0.763 | 0.868 | 0.53 | 0.73 | 
